From patent US9845296B2 (dated 2017)

| melting point | SMILES |
| --- | --- |
| 135 to 137 °C | CN(C)c1cc2[nH]c(C3CCCCC3)nc2cc1N |
| 183 to 185 °C | CN(C)c1cc2[nH]c(C3CCCCC3)nc2cc1NC(=O)c1ccc(OC(F)F)cc1 |
| 196 to 197 °C | CN(C)c1cc2[nH]c(C3CCCCC3)nc2cc1NC(=O)c1ccc(F)cc1 |
| 173 to 174 °C | COc1cccc(C(=O)Nc2cc3nc(C4CCCCC4)[nH]c3cc2N(C)C)c1OC |
